For nine compounds, TGI results are on record in PubChem BioAssay (NCI).

Structures are written as SMILES.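 Cells were grown in 96-well plates and exposed to each compound for 48 hours at five concentrations; endpoints were interpolated linearly between bracketing concentrations, or set to the highest concentration if not reached. TGI denotes the concentration required for complete inhibition of growth.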

Among the test systems are HL-60(TB) leukemia; NCI-H522 lung; SNB-19 CNS; K-562 leukemia; OVCAR-3 ovarian; UACC-62 melanoma; SR leukemia; UACC-257 melanoma; HCT-15 colon; SF-539 CNS; U251 CNS; HOP-62 NSCLC; SNB-75 CNS; LOX IMVI melanoma; NCI-H23 lung; HT29 colon; SK-MEL-5 melanoma; PC-3 prostate; HOP-92 NSCLC; MDA-N.
What all share (assay): NCI-60 cell line screen, 48 h

As for `CCCCCCCCCCCCCCCCNc1cccc2ccccc12`, the TGI in the assay on HL-60(TB) leukemia, with NCI-H522 lung, in the assay on SNB-19 CNS, in the assay on K-562 leukemia, with OVCAR-3 ovarian and with UACC-62 melanoma was over 100 µM each time. The TGI in the assay on SR leukemia, with UACC-257 melanoma, with HCT-15 colon, in the assay on SF-539 CNS, in the assay on U251 CNS and with HOP-62 NSCLC was over 100 µM in each case. Also, the TGI with SNB-75 CNS, in the assay on LOX IMVI melanoma and in the assay on NCI-H23 lung was over 100 µM each time.
With `Cc1c(/C=N\NC(=S)NCCNC(=S)N/N=C\c2c(C)n(C)n(-c3ccccc3)c2=O)c(=O)n(-c2ccccc2)n1C`, the TGI in the assay with HT29 colon, in the assay with SNB-19 CNS, in the assay with SK-MEL-5 melanoma, in the assay on OVCAR-3 ovarian, in the assay on UACC-62 melanoma and with SR leukemia was over 100 µM each time. For the same compound, the TGI in the assay with UACC-257 melanoma, in the assay on HCT-15 colon, in the assay with SF-539 CNS, with U251 CNS, in the assay on PC-3 prostate and with HOP-62 NSCLC was over 100 µM in each case. Moreover, the TGI with SNB-75 CNS, with HOP-92 NSCLC and with NCI-H23 lung was over 100 µM in each case.
As for `CCOC(=O)C1S/C(=N\C(=N)N[N+](=O)[O-])N=C1C` (centres undefined), the TGI with HL-60(TB) leukemia, in the assay on NCI-H522 lung, with HT29 colon, in the assay on SNB-19 CNS, in the assay with K-562 leukemia and in the assay with OVCAR-3 ovarian was over 100 µM each time. Moreover, the TGI in the assay on SR leukemia, with UACC-257 melanoma, in the assay on HCT-15 colon, in the assay with SF-539 CNS, in the assay on U251 CNS and in the assay on HOP-62 NSCLC was over 100 µM in each case. Besides, the TGI in the assay with SNB-75 CNS, in the assay with LOX IMVI melanoma, in the assay on HOP-92 NSCLC and with NCI-H23 lung was over 100 µM throughout.
On to `O=C1OCC/C1=N/O`, for which the TGI in the assay with HL-60(TB) leukemia, in the assay on NCI-H522 lung, with HT29 colon, in the assay on SK-MEL-5 melanoma, with K-562 leukemia and in the assay with OVCAR-3 ovarian was over 100 µM each time. The TGI in the assay on UACC-62 melanoma, in the assay on SR leukemia, in the assay with UACC-257 melanoma, in the assay on HCT-15 colon, in the assay with SF-539 CNS and in the assay with U251 CNS was over 100 µM each time. The TGI in the assay on SNB-75 CNS, in the assay on HOP-92 NSCLC and in the assay on NCI-H23 lung was over 100 µM in each case.
Consider `Cc1nc(C)c(C(=O)NNC(=O)C[N+](C)(C)C)cc1C(=O)NNC(=O)C[N+](C)(C)C`, for which the TGI in the assay on HL-60(TB) leukemia, with HT29 colon, in the assay on SNB-19 CNS, in the assay with SK-MEL-5 melanoma, with OVCAR-3 ovarian and with UACC-62 melanoma was over 100 µM in each case. The TGI in the assay on UACC-257 melanoma, in the assay on HCT-15 colon, with SF-539 CNS, in the assay on U251 CNS, with MDA-N and with HOP-62 NSCLC was over 100 µM in each case. Further, the TGI in the assay with SNB-75 CNS, in the assay with LOX IMVI melanoma, in the assay on HOP-92 NSCLC and in the assay on NCI-H23 lung was over 100 µM in each case.
Turning to `O=C(NCP(=O)(Oc1ccccc1)Oc1ccccc1)OCc1ccccc1`, the TGI with HL-60(TB) leukemia, in the assay on NCI-H522 lung, in the assay on HT29 colon, in the assay on SNB-19 CNS, in the assay on SK-MEL-5 melanoma and in the assay on K-562 leukemia was over 100 µM each time. Moreover, the TGI in the assay with OVCAR-3 ovarian, in the assay on UACC-62 melanoma, in the assay on SR leukemia, with UACC-257 melanoma, in the assay on HCT-15 colon and in the assay with U251 CNS was over 100 µM throughout. The TGI in the assay with PC-3 prostate, in the assay with HOP-62 NSCLC, in the assay with SNB-75 CNS, in the assay on LOX IMVI melanoma, with HOP-92 NSCLC and with NCI-H23 lung was over 100 µM each time.
For `C=C1CC(C#N)(C#N)[C@H]2C3CCCC3C[C@@H]12` (some centres undefined) (tested in a mixture with another compound), the TGI in the assay with HL-60(TB) leukemia is 54.2 µM; in the assay with HT29 colon, 28.1 µM; with SNB-19 CNS it was 67.4 µM; with SK-MEL-5 melanoma it was over 100 µM; in the assay with K-562 leukemia it was 82.8 µM; in the assay on OVCAR-3 ovarian, 38.9 µM. The TGI in the assay on UACC-62 melanoma was over 100 µM; in the assay with SR leukemia, 53.6 µM; in the assay with HCT-15 colon, 32.8 µM; with SF-539 CNS, 50.2 µM; in the assay with U251 CNS it was 40.4 µM; with PC-3 prostate, 97.4 µM. Further, the TGI with HOP-92 NSCLC came to 35 µM.
As to `COc1cc(O)c2c(c1)C(=O)c1cc3c(c(O)c1C2=O)C(OC1OC(C)C(OC)C(O)C1OC)C(OC)C(C)(O)C3=O` (centres undefined), the TGI in the assay with HL-60(TB) leukemia is over 100 µM; in the assay on NCI-H522 lung, 3.62 µM; in the assay with HT29 colon, 11.8 µM; in the assay on SNB-19 CNS it was 23.3 µM; in the assay on SK-MEL-5 melanoma, 3.86 µM; in the assay with K-562 leukemia, 19.4 µM. Moreover, the TGI with OVCAR-3 ovarian came to 22.6 µM; in the assay on SR leukemia, 9.16 µM; in the assay on UACC-257 melanoma, 16.2 µM; in the assay with HCT-15 colon it was 15.8 µM; in the assay on SF-539 CNS, 17.8 µM; with U251 CNS it was 22.8 µM. For the same compound, the TGI in the assay with PC-3 prostate was determined as 14.1 µM; with HOP-62 NSCLC, 44.2 µM; with SNB-75 CNS, 16 µM; with LOX IMVI melanoma it was 12.4 µM; in the assay on NCI-H23 lung it was 23.2 µM.
For the compound `COc1cc2c(cc1OC)C1C3CCCCC3CCN1CC2` (centres undefined), the TGI with HL-60(TB) leukemia, in the assay on NCI-H522 lung, with HT29 colon, with SNB-19 CNS, in the assay with SK-MEL-5 melanoma and in the assay on K-562 leukemia was over 100 µM throughout. For the same compound, the TGI with OVCAR-3 ovarian, in the assay with UACC-62 melanoma, in the assay with SR leukemia, with UACC-257 melanoma, with HCT-15 colon and in the assay on SF-539 CNS was over 100 µM each time. The TGI with U251 CNS, with PC-3 prostate, with HOP-62 NSCLC, in the assay with SNB-75 CNS, with LOX IMVI melanoma and with HOP-92 NSCLC was over 100 µM throughout. Moreover, in the assay with NCI-H23 lung, the TGI is over 100 µM.
